Numbered stars: 1 amine (or outer) side, 2 acyl side, 3 side chain; on linkers, the order of the positions; unused ones are H or OH. Square brackets hold non-standard residues; d marks the D form. Peptide text beside a SMILES is read from it. * marks the point of attachment. X1 = N#Cc1cnc2ccc(-c3c(-c4ccc(F)c(Cl)c4)ncn3CCOCN*)nn12; C18 diacid = O=C(O)CCCCCCCCCCCCCCCCC(=O)*; C16 diacid = O=C(O)CCCCCCCCCCCCCCC(=O)*; γGlu = O=C(O)[C@H](CCC(=O)[*:2])N[*:1]; PABC = O=C(OCc1ccc(N[*:1])cc1)[*:2]; AEEA = NCCOCCOCC(=O)O
Assays:
[1] = Cmax in C57BL/6 mouse heart xenografted mouse MC38 cells at 1.88 mg/kg,iv and measured after 72 hrs by LC-MS/MS analysis; assay type: ADME, organism-based, MC-38; set-up: time 72 hrs, dose 1.88 mg/kg, route iv
[2] = Cmax in C57BL/6 mouse xenografted with mouse MC38 cells at 3.75 mg/kg,iv and measured after 4 weeks by LC-MS/MS analysis; assay type: ADME, organism-based, MC-38; set-up: dose 3.75 mg/kg, time 4 weeks, route iv; settings: in vivo
[3] = Cmax in C57BL/6 mouse tumor xenografted mouse MC38 cells at 1.88 mg/kg,iv and measured after 72 hrs by LC-MS/MS analysis; assay type: ADME, organism-based, Neoplasm, MC-38; set-up: dose 1.88 mg/kg, time 72 hrs, route iv
[4] = AUC (0 to 72 hrs) in C57BL/6 mouse blood xenografted mouse MC38 cells at 1.88 mg/kg,iv and measured after 72 hrs by LC-MS/MS analysis; assay type: ADME, organism-based, MC-38; set-up: dose 1.88 mg/kg, time 72 hrs, route iv
[5] = Tmax in C57BL/6 mouse tumor xenografted mouse MC38 cells at 1.88 mg/kg,iv and measured after 72 hrs by LC-MS/MS analysis; assay type: ADME, organism-based, Neoplasm, MC-38
[6] = AUC (0 to 72 hrs) in C57BL/6 mouse heart xenografted mouse MC38 cells at 1.88 mg/kg,iv and measured after 72 hrs by LC-MS/MS analysis; assay type: ADME, organism-based, MC-38; set-up: time 72 hrs, dose 1.88 mg/kg, route iv
[7] = Tmax in C57BL/6 mouse heart xenografted mouse MC38 cells at 1.88 mg/kg,iv and measured after 72 hrs by LC-MS/MS analysis; assay type: ADME, organism-based, MC-38
[8] = Cmax in C57BL/6 mouse blood xenografted mouse MC38 cells at 1.88 mg/kg,iv and measured after 72 hrs by LC-MS/MS analysis; assay type: ADME, organism-based, MC-38; set-up: time 72 hrs, dose 1.88 mg/kg, route iv
[9] = Ratio of AUC in heart to blood in C57BL/6 mouse xenografted mouse MC38 cells at 1.88 mg/kg,iv and measured after 72 hrs by LC-MS/MS analysis; assay type: ADME, organism-based; settings: read-out: Ratio AUC
[10] = Ratio of AUC in tumor to heart in C57BL/6 mouse xenografted mouse MC38 cells at 1.88 mg/kg,iv and measured after 72 hrs by LC-MS/MS analysis; assay type: ADME, organism-based; settings: in vivo
[11] = Ratio of AUC in tumor to blood in C57BL/6 mouse xenografted mouse MC38 cells at 1.88 mg/kg,iv and measured after 72 hrs by LC-MS/MS analysis; assay type: ADME, organism-based; settings: read-out: Ratio AUC
[12] = AUC (0 to 72 hrs) in C57BL/6 mouse xenografted with mouse MC38 cells at 3.75 mg/kg,iv and measured after 4 weeks by LC-MS/MS analysis; assay type: ADME, organism-based, MC-38; set-up: dose 3.75 mg/kg, time 4 weeks, route iv; settings: in vivo
[13] = AUC (0 to 24 hrs) in rat at 3 mg/kg,iv for 3 months; assay type: ADME, organism-based; set-up: time 3 months, dose 3 mg/kg, route iv; settings: in vivo
[14] = AUC (0 to 72 hrs) in C57BL/6 mouse tumor xenografted mouse MC38 cells at 1.88 mg/kg,iv and measured after 72 hrs by LC-MS/MS analysis; assay type: ADME, organism-based, Neoplasm, MC-38; set-up: dose 1.88 mg/kg, time 72 hrs, route iv
[15] = Tmax in C57BL/6 mouse blood xenografted mouse MC38 cells at 1.88 mg/kg,iv and measured after 72 hrs by LC-MS/MS analysis; assay type: ADME, organism-based, MC-38
[16] = Stability in mouse plasma assessed as parent compound remaining after 24 hrs by HPLC-MS analysis; assay type: ADME, cell-free; settings: read-out: Stability
[17] = Drug concentration in C57BL/6 mouse plasma at 6 mg/kg,iv and measured after 24 hrs by LC-MS/MS analysis; assay type: ADME, organism-based
[18] = Stability in rat plasma assessed as parent compound remaining after 24 hrs by HPLC-MS analysis; assay type: ADME, cell-free; settings: read-out: Stability
[19] = AUC in C57BL/6 mouse plasma at 6 mg/kg,iv and measured upto 24 hrs by LC-MS/MS analysis; assay type: ADME, organism-based; set-up: dose 6 mg/kg, time < 24 hrs, route iv

Q: Which Cmax [1] does the source give for N#Cc1cnc2ccc(-c3c(-c4ccc(F)c(Cl)c4)ncn3CCO)nn12 here?
A: 2500 nM

Q: What about the Cmax [2] of the same compound?
A: 1500 nM

Q: What about the Cmax [3] of the same compound?
A: 1500 nM

Q: And the AUC(0-t) at 72 h [4]?
A: 5.8 µM·h

Q: And the Tmax [5]?
A: 1 h

Q: And the AUC(0-t) at 72 h [6]?
A: 10 µM·h

Q: What about the Tmax [7] of the same compound?
A: 1 h

Q: What about the Cmax [8] of the same compound?
A: 1400 nM

Q: And the Kp at 72 h [9]?
A: 1.7

Q: What about the “Ratio AUC” value [10] of the same compound?
A: 0.61

Q: What about the Kp at 72 h [11] of the same compound?
A: 1.1

Q: And the AUC(0-t) at 672 h [12]?
A: 39 µM·h

Q: What about the AUC(0-t) at 2190 h [13] of the same compound?
A: 27 µM·h

Q: What about the AUC(0-t) at 72 h [14] of the same compound?
A: 6.1 µM·h

Q: And the Tmax [15]?
A: 1 h

Q: For CC(=O)N[C@@H](CC(C)C)C(=O)N[C@@H](CO)C(=O)NCC(=O)N[C@@H](CCCCN)C(=O)Nc1ccc(COC(=O)NCOCCn2cnc(-c3ccc(F)c(Cl)c3)c2-c2ccc3ncc(C#N)n3n2)cc1 (Ac-LSGK[PABC]-X1), which remaining at 24 h [16] is on record?
A: 6%

Q: For CC(C)C[C@H](NC(=O)COCCOCCNC(=O)COCCOCCNC(=O)CC[C@H](NC(=O)CCCCCCCCCCCCCCC(=O)O)C(=O)O)C(=O)N[C@@H](CO)C(=O)NCC(=O)N[C@@H](CCCCN)C(=O)Nc1ccc(COC(=O)NCOCCn2cnc(-c3ccc(F)c(Cl)c3)c2-c2ccc3ncc(C#N)n3n2)cc1 ({C16 diacid-γGlu-AEEA-AEEA}-LSGK[PABC]-X1), which remaining at 24 h [16] is on record?
A: 54%

Q: For CC(C)C[C@H](NC(=O)COCCOCCNC(=O)COCCOCCNC(=O)COCCOCCNC(=O)CC[C@H](NC(=O)CCCCCCCCCCCCCCCCC(=O)O)C(=O)O)C(=O)N[C@@H](CO)C(=O)NCC(=O)N[C@@H](CCCCN)C(=O)Nc1ccc(COC(=O)NCOCCn2cnc(-c3ccc(F)c(Cl)c3)c2-c2ccc3ncc(C#N)n3n2)cc1 ({C18 diacid-γGlu-AEEA-AEEA-AEEA}-LSGK[PABC]-X1), which remaining at 24 h [16] is on record?
A: 91%

Q: What about the concentration at 24 h [17] of the same compound?
A: 5200 nM

Q: And the remaining at 24 h [18]?
A: 76%

Q: What about the AUC at 24 h [19] of the same compound?
A: 270 µM·h

Source: ChEMBL document CHEMBL5260852, “Long-Acting Tumor-Activated Prodrug of a TGFβR Inhibitor” (J Med Chem, 2021)
